Measurements as given in patent publication US20210290680A1, “METHODS AND COMPOSITIONS FOR MODULATING CELLULAR AGING” (Dorian Therapeutics, Inc., priority 2019, published 2021).

Assays:
[1] = test system: CD19.CAR and GD2.CAR T cells; experiment: CAR-T cell proliferation (fold increase compared to control cells); type: cell-based, human
Excerpt: Plasmids encoding for 2nd generation CAR specific for CD19 (Lenti-EF1a-CD19(FMC63)-2nd-CAR(CD28)-EGFRt) or GD2 (Lenti-EF1a-GD2(14G2a)-2nd-CAR(CD28)-EGFRt) were purchased from Creative Biolabs. The CAR containing plasmids were engineered to co-express a shRNA targeting USP16. The shRNA sequences are: shUSP16 #1 5′-[…]-3′ (SEQ ID NO: 8) and shUSP16 #2 5′-[…]-3′ (SEQ ID NO: 9). Primary T cells were activated as described (Example 3), transduced with a lentivirus encoding for either a CD19.CAR or a GD2.CAR co-expressing shUSP16 #1, shUSP16 #2 or a scrambled shRNA (Control). Cells were cultured in IL-2 and sorted between days 6-13 for EGFRt. Briefly, cells were stained with biotin EGFR antibody (R&D) and magnetically sorted with anti-biotin or streptavidin conjugated beads (Miltenyi Biotec) using the LS columns (Miltenyi Biotec). The positive population was isolated and expanded in regular TC-treated plates or in G-Rex 6 well culture plate (Wilson Wolf). The G-Rex platform was used to achieve a rapid expansion of T cells for in vitro and in vivo applications.
Primary T cells were activated as described (Example 3), transduced with a lentivirus encoding for either a CD19.CAR or a GD2.CAR co-expressing shUSP16 #1, shUSP16 #2 or a scrambled shRNA (Control). Cells were cultured in IL-2 and sorted between days 6-13 for EGFRt. Cells were plated post-sorting with a purity higher than 85% and counted every 2-4 days by Trypan Blue exclusion using Vi-CELL XR cell counter. Fifteen days post-activation both CD19.CAR and GD2.CAR T cells were collected, and qPCR was performed to verify downregulation of USP16 expression (FIG. 24) (fold change GD2.CAR (n=3): Control vs shUSP #1: 0.35, p<0.0001, and Control vs shUSP16 #2: 0.2452, p<0.0001, fold change CD19.CAR (n=4): Control vs shUSP #1: 0.2891, p<0.0001, and Control vs shUSP16 #2: 0.2566, p<0.0001). Proliferation was measured as fold increase compared to control cells at day 15 (FIG. 25).

[2] = test system: CHLA-55 neuroblastoma cell lines; experiment: In vivo anti-tumor activity of GD2.CAR T cells (circulating Gaussia luciferase); conditions: immunocompromised mice, one million GD2.CAR T cells via tail vein, n=4-6
Description: Primary T cells were activated as described (Example 3), transduced with a lentivirus encoding for either a CD19.CAR or a GD2.CAR co-expressing shUSP16 #1, shUSP16 #2, or a scrambled shRNA (Control). Cells were cultured in IL-2 and sorted between days 6-13 for EGFRt. At day 15 cells were frozen down (to mimic the clinic setting) and thawed d−1 before injection in immunocompromised mice. Immunocompromised mice (NCG (NOD CRISPR Prkdc II2r Gamma) were provided by Charles River and NSG (NOD.Cg-PrkdcIL2rg<tm1Wj1>/SzJ) were purchased from Jackson Laboratory). CHLA-55 neuroblastoma cell lines were transduced with Gaussia Luciferase and one million cells were injected via tail vein at d−7 (day minus 7).
One million of GD2.CAR T cells were infused via tail vain at day 0 and mice were weighted, and blood was collected every week (FIG. 36). Tumor growth was monitor by weekly assessment of circulating luciferase. Briefly, blood was collected and subsequently analyzed for luciferase expression using Nanolight Technologies Luciferase detection Kit. Luciferase expression (calculated as GLuc, RLU (Relative Luminescence Unit)) in the blood correlates with tumor engraftment.

[3] = test system: Axin-2; experiment: qPCR of WNT pathway gene Axin-2; type: cell-based, human; conditions: day 15, n=4; for Axin-2 expression, fold change vs Control: CD19.CAR
Excerpt: Primary T cells were activated as described (Example 3), transduced with a lentivirus encoding for either a CD19.CAR or a GD2.CAR co-expressing shUSP16 #1, shUSP16 #2 or a scrambled shRNA (Control). Fifteen days post-activation, T cells were collected and qPCR performed. TaqMan probes detecting CDKN1A, CDKN2A (FIGS. 26A and 26B) (fold change GD2.CAR (n=4): CDKN1A Control vs shUSP #1: 0.4360, p<0.0001, and Control vs shUSP16 #2: 3.036, p=0.004 respectively. Fold change CD19.CAR (n=4): CDKN2a, CDKN1A Control vs shUSP #1: 0.6906, p=0.0026; 0.7228, p=0.0297 and Control vs shUSP16 #2: 0.8385, p=0.2325; 0.7017, p=0.0021), TCF7, LEF1, and Axin-2 (FIGS. 27A and B) were analyzed in GD2.CAR and CD19.CAR-expressing cells, respectively. ACTB was used as internal control. (GD2.CAR (n=4) TCF7, LEF1 and Axin-2: Control vs shUSP #1: 1.914 p=0.0512; 1.795 p=0.0323; 3.269 p=0.15 and Control vs shUSP16 #2: 1.284 p=0.0494; 1.718 p=0.0586; 2.035p=0.235, respectively. Fold change CD19.CAR (n=4): TCF7, LEF1 and Axin-2: Control vs shUSP #1: 1.528, p=0.0277; 1.82, p=0.0449; 1.998, p=0.031 and Control vs shUSP16 #2: 1.18, p=0.2002; 1.579, p=0.0632; 1.261, p=0.2382). USP16 downregulation in CAR-T cells results in a decreased expression of senescence markers and an increase in the expression of genes associated with the activation/increased signaling of the WNT pathway, indicating its importance in delaying cellular senescence and increasing self-renewal.

[4] = test system: CD19.CAR T cells; experiment: Apoptosis, necrosis, mitochondrial membrane potential and glutathione content (Amberglass panel); type: cell-based, human; conditions: for cells with low mitochondrial membrane potential (Q1) / cellular health: high mitochondrial membrane potential and high GSH content (Q2): day 15; for apoptosis: day 15, FIG. 31A top left; for necrosis: day 15, FIG. 31A top right
Description: Primary T cells were activated as described (Example 3), and transduced with a lentivirus encoding for CD19.CAR co-expressing shUSP16 #1, shUSP16 #2 or a scrambled shRNA (Control). Cells were cultured in IL-2 and sorted between days 6-13 for EGFRt. At day 15 cells were stained and analyzed by MACSQuant for apoptosis, necrosis, mitochondrial membrane potential and glutathione content (GSH). The data generation was powered by Amberglass technology made available by Mojave Bio in the form of a dehydrated panel of reagents on a 96 well plate.

| Substance | T cell expansion, fold change vs Control ([1]; CD19.CAR, day 15, n=4) | T cell expansion, fold change vs Control ([1]; GD2.CAR, day 15, n=3) | CHLA-55 engraftment, luciferase expression in blood (GLuc) [2] [RLU] | Axin-2 expression, fold change vs Control [3] | Axin-2 expression vs Control ([3]; GD2.CAR) | cells with low mitochondrial membrane potential (Q1) [4] | cellular health: high mitochondrial membrane potential and high GSH content (Q2) [4] | apoptosis [4] | necrosis [4] |
| --- | --- | --- | --- | --- | --- | --- | --- | --- | --- |
| shUSP16 #1: shRNA targeting USP16, 5′-GACTGTAAGACTGACAATAAA-3′ (SEQ ID NO: 8), pSIH backbone or co-expressed in CAR plasmid | 2.259 | 2.147 | 53279 | 1.998 | 3.269 | 7.62 percentage of cells | 89.9 | 9.40 | 4.75 |
| shUSP16 #2: shRNA targeting USP16, 5′-TATATCAGTTCACCCGTAAT-3′ (SEQ ID NO: 9), pSIH backbone or co-expressed in CAR plasmid | 3.036 | 3.036 | 38968 | 1.261 |  | 9.87 percentage of cells | 85.7 | 8.25 | 3.96 |
